Laboratory results from patent US20240092773A1, “DIHYDRO-CYCLOPENTA-ISOQUINOLINE SULFONAMIDES DERIVATIVES” (UCB Biopharma SRL, priority 2019, published 2024).

Biological target: IgE-Tb binding to soluble IgE receptor FcεR1α (Y131A mutation) (Homo sapiens, UniProt P01854, N146Q/N252Q)
Experiment: In vitro FRET assay: inhibition of binding of IgE-Tb to receptor FcεR1α-Y131A-AF488
Conditions: read-out: FRET IC50 range

Sequence of IgE-Tb binding to soluble IgE receptor FcεR1α (Y131A mutation) (P01854 whole entry N146Q/N252Q, looked up): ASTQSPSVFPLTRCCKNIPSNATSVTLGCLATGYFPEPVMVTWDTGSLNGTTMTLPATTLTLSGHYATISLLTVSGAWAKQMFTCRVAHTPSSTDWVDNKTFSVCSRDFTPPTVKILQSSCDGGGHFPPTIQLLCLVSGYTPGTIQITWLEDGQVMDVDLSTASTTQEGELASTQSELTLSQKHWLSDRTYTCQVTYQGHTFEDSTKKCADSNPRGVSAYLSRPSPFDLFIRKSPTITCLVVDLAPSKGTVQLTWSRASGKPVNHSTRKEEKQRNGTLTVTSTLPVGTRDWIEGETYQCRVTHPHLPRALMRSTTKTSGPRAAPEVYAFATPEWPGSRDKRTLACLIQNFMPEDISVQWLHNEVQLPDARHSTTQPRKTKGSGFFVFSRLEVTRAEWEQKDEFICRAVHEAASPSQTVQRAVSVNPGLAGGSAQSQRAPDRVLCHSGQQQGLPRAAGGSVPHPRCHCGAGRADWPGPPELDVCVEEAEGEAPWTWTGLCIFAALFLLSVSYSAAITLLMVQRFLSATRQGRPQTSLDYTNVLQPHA

Structure (SMILES)	IC50 [nM]
Cc1nnc(-c2ccc(NC3CCc4c3cc(S(=O)(=O)NCC(C)(C)F)c3cc(C5CC5)ncc43)cn2)o1 (stereo not drawn) [Example 42, 3-cyclopropyl-N-(2-fluoro-2-methylpropyl)-7-[[6-(5-methyl-1,3,4-oxadiazol-2-yl)pyridin-3-yl]amino]-8,9-dihydro-7H-cyclopenta[h]isoquinoline-5-sulfonamide]	1 to 10
CCNC(=O)N[C@@H]1CCc2c1cc(S(=O)(=O)NCC(C)C)c1cc(C3CC3)ncc21 (stereo in doubt) [Example 85, 1-ethyl-3-[(7R*)-3-cyclopropyl-5-(2-methylpropylsulfamoyl-8,9-dihydro-7H-cyclopenta[h]isoquinolin-7-yl]urea]	10 to 50
[2H]C([2H])(NS(=O)(=O)c1cc2c(c3cnc(C4CC4)cc13)CCC2n1cnnc1NCC1CC1)C(C)C (stereo not drawn) [Example 35, 3-cyclopropyl-7-[3-(cyclopropylmethylamino)-1,2,4-triazol-4-yl]-N-(1,1-dideuterio-2-methylpropyl)-8,9-dihydro-7H-cyclopenta[h]isoquinoline-5-sulfonamide]	10 to 50
CCNC(=S)NC1CCc2cc(S(=O)(=O)NCC(C)C)c3cc(C4CC4)ncc3c21 (stereo not drawn) [Example 71, 1-[3-cyclopropyl-5-(2-methylpropylsulfamoyl)-8,9-dihydro-7H-cyclopenta[h]isoquinolin-9-yl]-3-ethylthiourea]	100 to 2000
CC(C)CNS(=O)(=O)c1cc2c(c3cnc(C4CC4)cc13)C(F)CC2 (stereo not drawn) [Example 65, 3-cyclopropyl-9-fluoro-N-(2-methylpropyl)-8,9-dihydro-7H-cyclopenta[h]isoquinoline-5-sulfonamide]	100 to 2000
Cc1cncc(Nc2nncn2[C@@H]2CCc3c2cc(S(=O)(=O)NCC(C)C)c2cc(C4CC4)ncc32)c1 (single isomer, unassigned) [Example 89, (7R*)-3-cyclopropyl-N-(2-methylpropyl)-7-[3-[(5-methylpyridin-3-yl)amino]-1,2,4-triazol-4-yl]-8,9-dihydro-7H-cyclopenta[h]isoquinoline-5-sulfonamide]	1 to 10
CC(C)(F)CNS(=O)(=O)c1cc2c(c3cnc(C4CC4)cc13)CCC2n1nnnc1N (stereo not drawn) [Example 39, 7-(5-aminotetrazol-1-yl)-3-cyclopropyl-N-(2-fluoro-2-methylpropyl)-8,9-dihydro-7H-cyclopenta[h]isoquinoline-5-sulfonamide]	100 to 2000
CC(C)CNS(=O)(=O)c1cc2c(c3cnc(C4CC4)cc13)C(C)(O)CC2 (stereo not drawn) [Example 64, 3-cyclopropyl-9-hydroxy-9-methyl-N-(2-methylpropyl)-7,8-dihydrocyclopenta[h]isoquinoline-5-sulfonamide]	100 to 2000
CC(C)(F)CNS(=O)(=O)c1cc2c(c3cnc(C4CC4)cc13)C(Nc1cncnc1)CC2 (stereo not drawn) [Example 28, 3-cyclopropyl-N-(2-fluoro-2-methylpropyl)-9-(pyrimidin-5-ylamino)-8,9-dihydro-7H-cyclopenta[h]isoquinoline-5-sulfonamide]	50 to 100
CC(C)CNS(=O)(=O)c1cc2c(c3cnc(C4CC4)cc13)CCC2Nc1nc2ccccc2[nH]1 (stereo not drawn) [Example 92, 7-(1H-benzimidazol-2-ylamino)-3-cyclopropyl-N-(2-methylpropyl)-8,9-dihydro-7H-cyclopenta[h]isoquinoline-5-sulfonamide]	10 to 50
CC1CC1C(=O)NC1CCc2cc(S(=O)(=O)NCC(C)(C)F)c3cc(C4CC4)ncc3c21 (stereo not drawn) [Example 26, N-[3-cyclopropyl-5-[(2-fluoro-2-methylpropyl)sulfamoyl]-8,9-dihydro-7H-cyclopenta[h]isoquinolin-9-yl]-2-methylcyclopropane-1-carboxamide]	100 to 2000
O=S(=O)(NC1CC(F)(F)C1)c1cc2c(c3cnc(C4CC4)cc13)CCC2n1cnnc1NCC1CC1 (stereo not drawn) [Example 81, 3-cyclopropyl-7-[3-(cyclopropylmethylamino)-1,2,4-triazol-4-yl]-N-(3,3-difluorocyclobutyl)-8,9-dihydro-7H-cyclopenta[h]isoquinoline-5-sulfonamide]	100 to 2000
CC(C)(F)CNS(=O)(=O)c1cc2c(c3cnc(C4CC4)cc13)CCC2(O)c1cccnc1 (stereo not drawn) [Example 10, 3-cyclopropyl-N-(2-fluoro-2-methylpropyl)-7-hydroxy-7-pyridin-3-yl-8,9-dihydrocyclopenta[h]isoquinoline-5-sulfonamide]	100 to 2000
CC(C)CNS(=O)(=O)c1cc2c(c3cnc(C4CC4)cc13)C(Nc1ccc(C(=O)O)nc1)CC2 (stereo not drawn) [Example 19, 5-[[3-cyclopropyl-5-(2-methylpropylsulfamoyl)-8,9-dihydro-7H-cyclopenta[h]isoquinolin-9-yl]amino]pyridine-2-carboxylic Acid]	100 to 2000
CC(C)(F)CNS(=O)(=O)c1cc2c(c3cnc(C4CC4)cc13)CC[C@H]2C(=O)Nc1cccnc1 (single isomer, unassigned) [Example 37, (7R*)-3-cyclopropyl-5-[(2-fluoro-2-methylpropyl)sulfamoyl]-N-pyridin-3-yl-8,9-dihydro-7H-cyclopenta[h]isoquinoline-7-carboxamide]	100 to 2000
CC(C)CNS(=O)(=O)c1cc2c(c3cnc(C4CC4)cc13)CCC2=O [Example 48, 3-cyclopropyl-N-(2-methylpropyl)-7-oxo-8,9-dihydrocyclopenta[h]isoquinoline-5-sulfonamide]	100 to 2000
CC(C)(F)CNS(=O)(=O)c1cc2c(c3cnc(C4CC4)cc13)[C@H](NC(=O)c1c[nH]c3cc(F)ccc13)CC2 (single isomer, unassigned) [Example 16, 6-fluoro-N-[(9R*)-3-cyclopropyl-5-[(2-fluoro-2-methylpropyl)sulfamoyl]-8,9-dihydro-7H-cyclopenta[h]isoquinolin-9-yl]-1H-indole-3-carboxamide]	100 to 2000
CC(C)CNS(=O)(=O)c1cc2c(c3nnc(C4CC4)cc13)CCC2 [Example 22, 3-cyclopropyl-N-(2-methylpropyl)-8,9-dihydro-7H-cyclopenta[h]cinnoline-5-sulfonamide]	50 to 100
CCNc1nncn1C1CCc2cc(S(=O)(=O)NCC(C)C)c3cc(C4CC4)ncc3c21 (stereo not drawn) [Example 72, 3-cyclopropyl-9-[3-(ethylamino)-1,2,4-triazol-4-yl]-N-(2-methylpropyl)-8,9-dihydro-7H-cyclopenta[h]isoquinoline-5-sulfonamide]	100 to 2000
[2H]C([2H])(NS(=O)(=O)c1cc2c(c3cnc(C4CC4)cc13)CCC2NC(=O)OC(C)(C)C)C(C)C (stereo not drawn) [Example 33, tert-butyl N-[3-cyclopropyl-5-[(1,1-dideuterio-2-methylpropyl)sulfamoyl]-8,9-dihydro-7H-cyclopenta[h]isoquinolin-7-yl]carbamate]	100 to 2000
O=S(=O)(NC1CC(F)C1)c1cc2c(c3cnc(C4CC4)cc13)CCC2n1cnnc1NCC1CC1 (stereo not drawn) [Example 82, 3-cyclopropyl-7-[3-(cyclopropylmethylamino)-1,2,4-triazol-4-yl]-N-(3-fluorocyclobutyl)-8,9-dihydro-7H-cyclopenta[h]isoquinoline-5-sulfonamide]	100 to 2000
CC(C)(F)CNS(=O)(=O)c1cc2c(c3cnc(C4CC4)cc13)OCC2O (stereo not drawn) [Example 36, 7-cyclopropyl-N-(2-fluoro-2-methylpropyl)-3-hydroxy-2,3-dihydrofuro[3,2-h]isoquinoline-5-sulfonamide]	10 to 50
CC(C)(F)CNS(=O)(=O)c1cc2c(c3cnc(C4CC4)cc13)C(Nc1ccc3c(c1)CC(=O)N3)CC2 (stereo not drawn) [Example 29, 3-cyclopropyl-N-(2-fluoro-2-methylpropyl)-9-[(2-oxo-1,3-dihydroindol-5-yl)amino]-8,9-dihydro-7H-cyclopenta[h]isoquinoline-5-sulfonamide]	100 to 2000
Cn1nnc(-c2ccc(NC3CCc4c3cc(S(=O)(=O)NCC(C)(C)F)c3cc(C5CC5)ncc43)cn2)n1 (stereo not drawn) [Example 40, 3-cyclopropyl-N-(2-fluoro-2-methylpropyl)-7-[[6-(2-methyltetrazol-5-yl)pyridin-3-yl]amino]-8,9-dihydro-7H-cyclopenta[h]isoquinoline-5-sulfonamide]	1 to 10
CC(C)CNS(=O)(=O)c1cc2c(c3cnc(C4CC4)cc13)[C@@H](Nc1nc3ccccc3[nH]1)CC2 (single isomer, unassigned) [Example 80, (9R*)-9-(1H-benzimidazol-2-ylamino)-3-cyclopropyl-N-(2-methylpropyl)-8,9-dihydro-7H-cyclopenta[h]isoquinoline-5-sulfonamide]	10 to 50
CC(C)(F)CNS(=O)(=O)c1cc2c(c3cnc(C4CC4)cc13)C(Oc1cccnc1)CC2 (stereo not drawn) [Example 93, 3-cyclopropyl-N-(2-fluoro-2-methylpropyl)-9-pyridin-3-yloxy-8,9-dihydro-7H-cyclopenta[h]isoquinoline-5-sulfonamide]	100 to 2000
Cc1cc(C(=O)N[C@@H]2CCc3cc(S(=O)(=O)NCC(C)C)c4cc(C5CC5)ncc4c32)n[nH]1 (single isomer, unassigned) [Example 20, 5-methyl-N-[(9R*)-3-cyclopropyl-5-(2-methylpropylsulfamoyl)-8,9-dihydro-7H-cyclopenta[h]isoquinolin-9-yl]-1H-pyrazole-3-carboxamide]	100 to 2000
CC(C)(F)CNS(=O)(=O)c1cc2c(c3cnc(C4CC4)cc13)C(Nc1cncc3ccccc13)CC2 (stereo not drawn) [Example 68, 3-cyclopropyl-N-(2-fluoro-2-methylpropyl)-9-(isoquinolin-4-ylamino)-8,9-dihydro-7H-cyclopenta[h]isoquinoline-5-sulfonamide]	100 to 2000
CCNC1=NS(=O)(=O)N=C1NC1CCc2c1cc(S(=O)(=O)NCC(C)C)c1cc(C3CC3)ncc21 (stereo not drawn) [Example 54, 3-cyclopropyl-7-[[4-(ethylamino)-1,1-dioxo-1,2,5-thiadiazol-3-yl]amino]-N-(2-methylpropyl)-8,9-dihydro-7H-cyclopenta[h]isoquinoline-5-sulfonamide]	100 to 2000
CC(C)(F)CNS(=O)(=O)c1cc2c(c3cnc(C4CC4)cc13)CCC2C(=O)O (stereo not drawn) [Example 7, 3-cyclopropyl-5-[(2-fluoro-2-methylpropyl)sulfamoyl]-8,9-dihydro-7H-cyclopenta[h]isoquinoline-7-carboxylic Acid]	100 to 2000
